Test results as given in patent US10428159B2, “Blocking monoclonal antibodies to AGR2 and its receptor C4.4A” (Board of Regents, The University of Texas System, priority 2014, dated 2019).

Key:
AsPC-1 cells [1] = assay: Apoptosis assay (Gem, rAGR2, antibodies); type: cell-based; conditions: AsPC-1, 5 μM Gem
Method: FIGS. 11A-D. Monoclonal antibodies developed bind respectively to AGR2 and C4.4A proteins and blocked their functions. From the endogenous lysate (SU86.86/Panc-1), AGR2 (18 kD) and C4.4A (50 kD) were identified by a panel of mAbs. […] Extra bands identified with the endogenous protein were re-confirmed with the recombinant protein. For apoptosis studies, AsPC-1 cells were treated without or with Gem (0.5 μM) and rAGR2 (100 nM) and with purified (A) AGR2 and (B) C4.4A Abs (1 μM). Commercially available Abs served as control. […] Horizontal line represents median apoptotic value. Data shown are mean±SE for 3 experiments (*p<0.05). (C,D) Binding assays were conducted with purified (C) AGR2 and (D) C4.4A Abs as selected from the apoptosis assay as having high blocking efficiency. ELISA assays were conducted by coating antigenic peptide (0.5 μg) and probed with respective purified Abs. Data shown are mean±SE for 3 experiments (*p <0.05). Based on high specificity and binding, clone 28B for AGR2 and 1A for C4.4A were selected. Purified Abs were also run on 4-20% gradient gel to check for the presence of heavy (50 kD) and light chains (25 kD).
(§1) Cell growth, migration, invasion and apoptosis assays. Wild-type and siRNA transfected PDAC cells were grown with rAGR2 (0-500 nM) in the presence and absence of antibodies (polyclonal commercial or newly developed mAbs) (1 μM). The medium was refreshed daily. […]

BxPC-3 cells = assay: Apoptosis assay (Gem, rAGR2); type: cell-based; conditions: BxPC-3, Gem 1 μM
Method: FIGS. 7A-D. Extracellular rAGR2-mediated functions. (A) Pancreatic cancer cells (BxPC-3 and MiaPaCa-2) were used for these studies. Extracellular addition of rAGR2 caused a significant dose-dependent increase in proliferation (BxPC-3-3-fold increase; MiaPaCa-2-4-fold increase; p<0.05). Pancreatic cancer cells were plated (2×10^4 cells) with and without rAGR2 (0-100 nM) on a Boyden's chamber for migration studies (B) and on an invasion chamber for invasion studies (C). After 22 h, cells were fixed with methanol and stained by hematoxylin, and cells in 10 random fields at 100× magnification were photographed and counted. Extracellular addition of rAGR2 caused a significant dose-dependent increase in migration (BxPC-3-7-fold increase; MiaPaCa-2-3-fold increase) and invasion (BxPC-3-10-fold increase; MiaPaCa-2-3-fold increase). (D) For analysis of apoptosis, BxPC-3 cells were treated with and without Gem (1 μM) and AGR2 (100 nM). […] Data shown are mean±SE for 3 experiments (*p<0.05 vs. control).
as §1, with “daily. Cell numbers were estimated after 48 h by MTS assay as described previously (Ramachandran et al., 2007).” for “daily.”

AsPC-1 cells [2] = assay: Model 1 AsPC-1 aggressive cell model, orthotopic tumors; type: in vivo, athymic nude mice
Method: In vivo studies. In vivo experiments were conducted with athymic nude mice (B6.Cg-Foxn1^nu/J—female—age 9 weeks) (NCI, Bethesda, Md.) according to the UT MDACC regulatory standards and IUCAC committee approval. Orthotopic tumors were developed with luciferase-labeled cells (0.25×10^6). IgG (Cat #OB010701; Southern Biotech, Birmingham, Ala.) served as a control Ab.
Model 1 (AsPC-1-Aggressive Cell Model)—Two weeks after the injection of the aggressive AsPC-1 cells, when the tumors weighed less than 0.5 g (as surgically confirmed from a parallel untreated group), mice (n=6) were treated with control or mAbs (5 mg each of AGR2/C4.4A mAb in combination/kg/body weight/twice a week/i.p) and with or without Gem (100 mg/kg body weight/once a week/i.p) until all of the control mice had died (seven weeks). Tumor weight and metastasis to liver and lung were compared between control and treated groups ex vivo at the end of the experiment.

Nc1ccn([C@@H]2O[C@H](CO)[C@@H](O)C2(F)F)c(=O)n1 [Gem, Gemcitabine, reference compound]
increase in apoptosis (AsPC-1 cells [1]): 3 fold | increase in apoptosis (BxPC-3 cells): 1 fold | effect on tumor growth and metastasis incidence (AsPC-1 cells [2]; Gem 100 mg/kg once a week i.p., alone or in combination with the mAbs): no significant effect | mice remained alive (AsPC-1 cells [2]; after four weeks of treatment (six weeks total), when all control Ab mice had died): 30%
